Entries after “also recorded” stand apart in the source; their conditions may differ.

This note sets out measurements from US20230190887A1, “TARGETING G3BP AGGREGATION TO PREVENT NEURODEGENERATION” (priority 2019, published 2023).

Experiment [1] relates to wild-type or ALS/FTD-associated mutant (P362L, A381T, E384K) TIA1-GFP in HEK cells. Kind of experiment: TIA1-GFP aggregates in arsenite-treated HEK cells. The format is cell-based. The note with it: sodium arsenite 0.5 mM 30 minutes, then 10 μM peptide. The text has this:
The inventors tested whether the G3BP1 190-208 peptide would prevent the aggregation of granules formed by TIA1 and TDP43 mutant proteins associated with ALS and FTD. […] Next, we treated HEK cells expressing wild-type and or ALS/FTD-associated mutants (P362L, A381T, or E384K)TIA1, with arsenite a potent inducer of SG aggregation, in addition to either G3BP1 190-208 peptide or control G3BP1 168-189 peptide.
FIG. 5: Cell permeable G3BP1 190-208 peptide decreases TIA1-GFP puncta formed due to expression of disease causing TIA1 mutants. (A) Representative images of HEK cells transfected with GFP-tagged wild-type or ALS/FTD-associated mutants (P362L, A381T, or E384K) TIA1. Arrows show TIA1-GFP puncta. (B) Quantification of the percentage of cells with TIA1-GFP puncta greater than 2 μm^2 area in transfected cells relative TIA1-WT-GFP expressing cells. Consistent with previous studies, ALS/FTD- associated TIA1 mutants show increased number of TIA1-GFP puncta as compared to WT-TIA1. (C) HEK cells expressing TIA1-GFP or ALS/FTD-associated mutants TIA1-P362L, TIA1-A381T, TIA1-E384K were treated with sodium arsenite (0.5 mM) for 30 minutes followed by treatment with either 10 μM 190-208 G3BP1 or 168-189 control peptide. The number of cells containing TIA1-GFP puncta were measured and results are reported relative to non-treated controls. Number of HEK cells with TIA1-GFP granules both for WT and ALS/FTD mutants decreased after treatment with 10 μM 190-208 G3BP1 as compared to the 168-189 control peptide treated cells. (N≥90 over 3 cultures; by two-way ANOVA with Tukey HSD post-hoc). Scale bar: 20 μm.

Experiment [2] concerns G3BP1 aggregates in midbrain neurons. Kind of experiment: Endogenous G3BP1 aggregates in MPP+-treated midbrain neurons. The format is cell-based, rat. The following applies: MPP+ plus peptide. The text has this: (§1) Given that the G3BP1 190-208 peptide prevents degeneration induced by treatment with neurotoxins such as MPP+ and Aβ oligomer and decreases G3BP1 aggregates formed due MPP+ and Aβ treatment.
(§2) (A) Size of endogenous G3BP1 aggregates per 100 μm of neurite is shown as indicated bins from midbrain cultures under control conditions and after treatment with MPP+alone or with 190-208 G3BP1 or 168-189 peptides. (B) Size distribution of endogenous G3BP1 aggregates per 100 μm of neurite is shown from cortical neurons treated with 1 μM Aβpeptide or with […] 190-208 G3BP1 or 168-189 control peptide. Non-treated neurons were used as a control. […] (N≥90 over 3 cultures; by two-way ANOVA with Tukey HSD post-hoc).

Experiment [3] concerns G3BP1 aggregates in cortical neurons. The experiment can be described thus: Endogenous G3BP1 aggregates in Aβ-treated cortical neurons. The class given is cell-based, rat. The following applies: Aβ oligomers plus peptide.
Text: as §1, §2

The test system of experiment [4] is axons of E18 cortical neurons. Kind of experiment: Aβ oligomer-mediated axon degeneration in microfluidic cultures. The class given is cell-based. The following applies: axons only exposed: Aβ oligomer 1 μM for 16 hours ± 190-208 G3BP1 peptide 1 μM. On the procedure:
To test whether the cell permeable G3BP1 190-208 peptide protects against this early axonal degeneration, the current disclosure exposed only the axons of E18 cortical neuron cultures to Aβ peptide using microfluidic cultures (FIG. 16A). […] Thus, the cell permeable G3BP1 190-208 peptide protects axons from the neurotoxic effects of Aβ oligomers through axon intrinsic mechanisms.
E18 cortical neurons were plated into the cell-body compartment (blue); after 7 DIV axons from these neurons extend through the microchannels into the axon compartment (pink). […] Yellow line indicates the exit of the axons from the microchannels.

Experiment [5] has as its system G3BP1 aggregates in E12.5 motor neurons. Kind of experiment: Endogenous G3BP1 aggregates in MPP+-treated motor neurons. The note with it: MPP+ plus 10 μM peptide. The class given is cell-based, mouse. As to the method: Previous studies have shown that, exposure of midbrain neurons results in formation of stress granules. To test whether treatment of motor neurons with mitotoxin MPP+ results in the formation of stress granules the inventors stained the MPP+-treated neurons for G3BP1 protein.
(A) Quantification of mitotoxin/neurotoxin MPP+-induced degeneration of DIV7 E12.5 motor neuron neurites after exposure of cultures to 100 μM MPP+ and either 10 μM 190-208 G3BP1 or 168-189 control peptide. As controls, neurons treated with solvents were used. (B) Representative images of G3BP1 (green) and NF-labeled (red) E12.5 motor neurons under control or after treatment with 100 μM MPP+ [scale bar=10 μm]. (C) distribution of sizes of endogenous G3BP1 aggregate per 100 μm neurite is shown as indicated bins from motor neurons cultures as treated in (B). (N≥80 neurites over three repetitions; by one-way ANOVA with Tukey HSD post-hoc). […] (D) Endogenous G3BP1 aggregate sizes per 100 μm neurite indicated as bins for motor neurons either untreated or treated with MPP+ alone or with addition of 10 μM 190-208 G3BP1 or 168-189 control peptide. […] (N≥90 over 3 cultures; by one-way ANOVA with Tukey HSD post-hoc)

For the next experiment, the system named is E18 cortical neurons. Kind of experiment: Aβ-induced neurite degeneration of cortical neurons. The format is cell-based, rat. The following applies: DIV7 E18 cortical neurons, 1 μM Aβ oligomer 16-18 hours, with 10 μM peptide. On the procedure: To test whether the triggering disassembly of stress granules would be protective in Parkinson's and Alzheimer's disease, the inventors employed 1-methyl-4-phenylpyridinium (MPP+)-induced and amyloid β (Aβ)-mediated neurotoxicity models. Rat embryonic day 18 (E18) midbrain neurons cultured for 7 days were treated for 16-18 hours with 100 μM MPP+, see FIGS. 1A and B, while E18 cortical neurons were treated with 1 μM Aβ oligomer, see FIGS. 2A-2B, with or without 10 μM G3BP1 190-208 or 168-189 peptide. As a control, the inventors used non-treated neurons.
FIG. 2: Cell permeable G3BP1 190-208 peptide blocks pathological degeneration beta-amyloid-induced neurotoxicity in cortical neurons. (A) Representative images of NF-labeled (white) E18 cortical neurons. DIV7 cortical neurons were treated with […] (ii) or control (i) and 10 μM 190-208 G3BP1 peptide (iv) or 10 μM 168-189 control peptide (iii) [scale bar=100 μm]. (B) Quantitation of degeneration in cortical neurons treated with 1 μM Aβpeptide-treated neurons after addition of 190-208 G3BP1 or 168-189 control peptide. Solvent treated cells were used as control. […] (N≥95 over 3 cultures; by one-way ANOVA with Tukey HSD post-hoc).

Setting [6] is: listed as 190-208 G3BP1 peptide.

As for “YGNKKNNNQNNN-VVEPEPEPEPEPEPEPVSE [G3BP1 190-208 peptide]”, in experiment [1] (WT and ALS/FTD mutants, relative to non-treated controls), the “number of HEK cells with TIA1-GFP granules” value is given as “decreased”. Moreover, the “size of TIA1 aggregates” value in experiment [1] (WT and mutant TIA1) is “decrease the size of the TIA1 aggregates”. For the same substance, the “size of endogenous G3BP1 aggregates per 100 μm of neurite” value in experiment [2] is on record as “decrease in the size of G3BP1 aggregates”; in experiment [2] (setting [6]), “disassembly of G3BP1 granules”; in experiment [3] it was “decrease in the size of G3BP1 aggregates”; in experiment [3] (setting [6]), “disassembly of G3BP1 granules”. In addition, the axon degeneration entry in experiment [4] is recorded as “near completely prevented this axon degeneration; also recorded: rescues amyloid beta oligomer-mediated axonal degeneration”. In addition, the entries for the “size of endogenous G3BP1 aggregates per 100 μm neurite” value in experiment [5] and in experiment [5] (setting [6]) were “decrease in the size of aggregates” and “decrease in the number of larger G3BP1 granules”, respectively. For the same substance, the neurite degeneration result in the experiment with E18 cortical neurons (listed as 190-208 peptide) is “significant rescue from Aβ-induced neurite degeneration”; in the experiment on E18 cortical neurons (listed as G3BP1 190-208) it was “prevented neurite degeneration”.
